Source: PubChem BioAssay (NCI)
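Where inhibition never reached the appropriate level, the endpoint shown equals the highest concentration tested. Otherwise, values were interpolated linearly from a five-concentration, 48-hour dose response in 96-well plates. GI50 marks 50% less growth. TGI marks complete inhibition of growth.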

Experiments:
Assay in all cases: NCI tumour cell line growth inhibition, 48 h; in the data active means GI50 below about 0.43 µM; inactive means the rest
MCF7 breast = test system: MCF7 breast
NCI/ADR-RES ovarian = test system: NCI/ADR-RES ovarian
HT29 colon = test system: HT29 colon
OVCAR-4 ovarian = test system: OVCAR-4 ovarian
DU-145 prostate = test system: DU-145 prostate
SF-295 CNS = test system: SF-295 CNS
HCT-15 colon = test system: HCT-15 colon
CAKI-1 renal = test system: CAKI-1 renal
UACC-257 melanoma = test system: UACC-257 melanoma
SN12C renal = test system: SN12C renal
U251 CNS = test system: U251 CNS
HL-60(TB) leukemia = test system: HL-60(TB) leukemia
A549 NSCLC = test system: A549 NSCLC
NCI-H522 lung = test system: NCI-H522 lung
UO-31 renal = test system: UO-31 renal
SNB-19 CNS = test system: SNB-19 CNS
KM12 colon = test system: KM12 colon
LOX IMVI melanoma = test system: LOX IMVI melanoma
HS 578T breast = test system: HS 578T breast
MOLT-4 leukemia = test system: MOLT-4 leukemia
SNB-75 CNS = test system: SNB-75 CNS
OVCAR-3 ovarian = test system: OVCAR-3 ovarian
HOP-92 NSCLC = test system: HOP-92 NSCLC
NCI-H460 lung = test system: NCI-H460 lung
OVCAR-5 ovarian = test system: OVCAR-5 ovarian
K-562 leukemia = test system: K-562 leukemia
HOP-62 NSCLC = test system: HOP-62 NSCLC
NCI-H226 lung = test system: NCI-H226 lung
SR leukemia = test system: SR leukemia
M14 melanoma = test system: M14 melanoma
NCI-H23 lung = test system: NCI-H23 lung
ACHN renal = test system: ACHN renal
MALME-3M melanoma = test system: MALME-3M melanoma
T-47D breast = test system: T-47D breast
MDA-MB-435 = test system: MDA-MB-435
SK-OV-3 ovarian = test system: SK-OV-3 ovarian
SK-MEL-2 melanoma = test system: SK-MEL-2 melanoma
TK-10 renal = test system: TK-10 renal
BT-549 breast = test system: BT-549 breast
COLO 205 colon = test system: COLO 205 colon
IGROV1 ovarian = test system: IGROV1 ovarian
OVCAR-8 ovarian = test system: OVCAR-8 ovarian
UACC-62 melanoma = test system: UACC-62 melanoma
786-0 renal = test system: 786-0 renal
RXF 393 renal = test system: RXF 393 renal
RPMI-8226 leukemia = test system: RPMI-8226 leukemia
SK-MEL-5 melanoma = test system: SK-MEL-5 melanoma
SW-620 colon = test system: SW-620 colon
A498 renal = test system: A498 renal
SF-268 CNS = test system: SF-268 CNS
SK-MEL-28 melanoma = test system: SK-MEL-28 melanoma
SF-539 CNS = test system: SF-539 CNS
EKVX NSCLC = test system: EKVX NSCLC
PC-3 prostate = test system: PC-3 prostate
HCT-116 colon = test system: HCT-116 colon
MDA-MB-231 breast = test system: MDA-MB-231 breast
CCRF-CEM leukemia = test system: CCRF-CEM leukemia
HCC-2998 colon = test system: HCC-2998 colon

COc1ccc(CC(C)C(C)Cc2ccc(OC)c(OC)c2)cc1OC (centres undefined)
> 1400 µM: TGI (MCF7 breast) | TGI (NCI/ADR-RES ovarian) | TGI (HT29 colon) | TGI (OVCAR-4 ovarian) | TGI (DU-145 prostate) | TGI (SF-295 CNS) | TGI (HCT-15 colon) | TGI (CAKI-1 renal) | TGI (UACC-257 melanoma) | TGI (SN12C renal) | TGI (U251 CNS) | TGI (HL-60(TB) leukemia) | TGI (A549 NSCLC) | TGI (UO-31 renal) | TGI (SNB-19 CNS) | TGI (KM12 colon) | TGI (LOX IMVI melanoma) | TGI (HS 578T breast) | TGI (MOLT-4 leukemia) | TGI (SNB-75 CNS) | TGI (HOP-92 NSCLC) | TGI (NCI-H460 lung) | TGI (OVCAR-5 ovarian) | TGI (K-562 leukemia) | TGI (HOP-62 NSCLC) | TGI (NCI-H226 lung) | TGI (SR leukemia) | TGI (M14 melanoma) | TGI (NCI-H23 lung) | TGI (ACHN renal) | TGI (T-47D breast) | TGI (MDA-MB-435) | TGI (SK-OV-3 ovarian) | TGI (SK-MEL-2 melanoma) | TGI (TK-10 renal) | TGI (BT-549 breast) | TGI (COLO 205 colon) | TGI (IGROV1 ovarian) | TGI (OVCAR-8 ovarian) | TGI (UACC-62 melanoma) | TGI (786-0 renal) | TGI (RPMI-8226 leukemia) | TGI (SK-MEL-5 melanoma) | TGI (SW-620 colon) | TGI (A498 renal) | TGI (SK-MEL-28 melanoma) | TGI (SF-539 CNS) | TGI (EKVX NSCLC) | TGI (PC-3 prostate) | TGI (HCT-116 colon) | TGI (MDA-MB-231 breast)
> 1.4 mM: TGI (NCI-H522 lung) | TGI (OVCAR-3 ovarian) | TGI (MALME-3M melanoma) | TGI (SF-268 CNS)
inactive: GI50 (MCF7 breast) 650 µM | GI50 (NCI/ADR-RES ovarian) > 1400 µM | GI50 (HT29 colon) > 1400 µM | GI50 (OVCAR-4 ovarian) 1.14 mM | GI50 (DU-145 prostate) > 1400 µM | GI50 (SF-295 CNS) 642 µM | GI50 (HCT-15 colon) > 1400 µM | GI50 (CAKI-1 renal) > 1400 µM | GI50 (UACC-257 melanoma) 80.7 µM | GI50 (SN12C renal) > 1400 µM | GI50 (U251 CNS) 802 µM | GI50 (HL-60(TB) leukemia) > 1400 µM | GI50 (A549 NSCLC) 600 µM | GI50 (NCI-H522 lung) 79.7 µM | GI50 (UO-31 renal) > 1400 µM | GI50 (SNB-19 CNS) > 1400 µM | GI50 (KM12 colon) > 1400 µM | GI50 (LOX IMVI melanoma) > 1400 µM | GI50 (HS 578T breast) > 1400 µM | GI50 (MOLT-4 leukemia) > 1400 µM | GI50 (SNB-75 CNS) > 1400 µM | GI50 (OVCAR-3 ovarian) > 1.4 mM | GI50 (HOP-92 NSCLC) 235 µM | GI50 (NCI-H460 lung) > 1400 µM | GI50 (OVCAR-5 ovarian) > 1400 µM | GI50 (K-562 leukemia) > 1400 µM | GI50 (HOP-62 NSCLC) 750 µM | GI50 (NCI-H226 lung) 908 µM | GI50 (SR leukemia) 915 µM | GI50 (M14 melanoma) > 1400 µM | GI50 (NCI-H23 lung) 297 µM | GI50 (ACHN renal) > 1400 µM | GI50 (MALME-3M melanoma) > 1.4 mM | GI50 (T-47D breast) > 1.4 mM | GI50 (MDA-MB-435) > 1400 µM | GI50 (SK-OV-3 ovarian) > 1400 µM | GI50 (SK-MEL-2 melanoma) > 1400 µM | GI50 (TK-10 renal) > 1400 µM | GI50 (BT-549 breast) > 1400 µM | GI50 (COLO 205 colon) > 1400 µM | GI50 (IGROV1 ovarian) 800 µM | GI50 (OVCAR-8 ovarian) > 1400 µM | GI50 (UACC-62 melanoma) 1130 µM | GI50 (786-0 renal) 804 µM | GI50 (RXF 393 renal) 255 µM | GI50 (RPMI-8226 leukemia) 96.7 µM | GI50 (SK-MEL-5 melanoma) 112 µM | GI50 (SW-620 colon) > 1400 µM | GI50 (A498 renal) > 1400 µM | GI50 (SF-268 CNS) > 1.4 mM | GI50 (SK-MEL-28 melanoma) > 1400 µM | GI50 (SF-539 CNS) > 1400 µM | GI50 (EKVX NSCLC) 986 µM | GI50 (PC-3 prostate) > 1400 µM | GI50 (HCT-116 colon) 1280 µM | GI50 (MDA-MB-231 breast) 126 µM
950 µM: TGI (RXF 393 renal)

Cn1c(/C(C#N)=C/c2ccc3ccccc3c2)cc2ccccc21
0.552 µM: TGI (A498 renal)
> 92.7 µM: TGI (SNB-75 CNS)
0.109 µM: TGI (MDA-MB-435)
0.463 µM: TGI (SF-295 CNS)
> 26.1 µM: TGI (COLO 205 colon)
> 100 µM: TGI (MCF7 breast) | TGI (NCI/ADR-RES ovarian) | TGI (HT29 colon) | TGI (OVCAR-4 ovarian) | TGI (DU-145 prostate) | TGI (HCT-15 colon) | TGI (CAKI-1 renal) | TGI (UACC-257 melanoma) | TGI (SN12C renal) | TGI (U251 CNS) | TGI (A549 NSCLC) | TGI (UO-31 renal) | TGI (SNB-19 CNS) | TGI (KM12 colon) | TGI (LOX IMVI melanoma) | TGI (HS 578T breast) | TGI (MOLT-4 leukemia) | TGI (HOP-92 NSCLC) | TGI (NCI-H460 lung) | TGI (OVCAR-5 ovarian) | TGI (K-562 leukemia) | TGI (HOP-62 NSCLC) | TGI (NCI-H226 lung) | TGI (CCRF-CEM leukemia) | TGI (SR leukemia) | TGI (M14 melanoma) | TGI (NCI-H23 lung) | TGI (ACHN renal) | TGI (T-47D breast) | TGI (SK-OV-3 ovarian) | TGI (SK-MEL-2 melanoma) | TGI (TK-10 renal) | TGI (BT-549 breast) | TGI (IGROV1 ovarian) | TGI (OVCAR-8 ovarian) | TGI (UACC-62 melanoma) | TGI (HCC-2998 colon) | TGI (786-0 renal) | TGI (RPMI-8226 leukemia) | TGI (SK-MEL-5 melanoma) | TGI (SW-620 colon) | TGI (SK-MEL-28 melanoma) | TGI (EKVX NSCLC) | TGI (PC-3 prostate) | TGI (HCT-116 colon) | TGI (MDA-MB-231 breast)
0.941 µM: TGI (SF-539 CNS)
0.474 µM: TGI (RXF 393 renal)
inactive: GI50 (OVCAR-4 ovarian) > 0.1 mM | GI50 (DU-145 prostate) 0.456 µM | GI50 (UACC-257 melanoma) > 100 µM | GI50 (MOLT-4 leukemia) 0.468 µM | GI50 (NCI-H226 lung) 0.662 µM | GI50 (SK-OV-3 ovarian) > 100 µM | GI50 (SK-MEL-2 melanoma) 6.28 µM | GI50 (TK-10 renal) > 100 µM | GI50 (BT-549 breast) 0.474 µM | GI50 (SK-MEL-5 melanoma) 0.455 µM | GI50 (SK-MEL-28 melanoma) 16.6 µM | GI50 (EKVX NSCLC) 0.471 µM | GI50 (MDA-MB-231 breast) 0.46 µM
0.699 µM: TGI (HL-60(TB) leukemia)
active: GI50 (MCF7 breast) 0.0946 µM | GI50 (NCI/ADR-RES ovarian) 0.0648 µM | GI50 (HT29 colon) 0.353 µM | GI50 (SF-295 CNS) 0.11 µM | GI50 (HCT-15 colon) 0.0934 µM | GI50 (CAKI-1 renal) 0.0605 µM | GI50 (SN12C renal) 0.389 µM | GI50 (U251 CNS) 0.249 µM | GI50 (HL-60(TB) leukemia) 0.21 µM | GI50 (A549 NSCLC) 0.247 µM | GI50 (UO-31 renal) 0.157 µM | GI50 (SNB-19 CNS) 0.256 µM | GI50 (KM12 colon) 0.114 µM | GI50 (LOX IMVI melanoma) 0.12 µM | GI50 (HS 578T breast) 0.162 µM | GI50 (SNB-75 CNS) 0.0628 µM | GI50 (HOP-92 NSCLC) 0.0395 µM | GI50 (NCI-H460 lung) 0.201 µM | GI50 (OVCAR-5 ovarian) 0.411 µM | GI50 (K-562 leukemia) 0.0455 µM | GI50 (HOP-62 NSCLC) 0.357 µM | GI50 (CCRF-CEM leukemia) 267 nM | GI50 (SR leukemia) 0.114 µM | GI50 (M14 melanoma) 0.104 µM | GI50 (NCI-H23 lung) 0.392 µM | GI50 (ACHN renal) 0.125 µM | GI50 (MDA-MB-435) 0.0317 µM | GI50 (COLO 205 colon) 0.309 µM | GI50 (IGROV1 ovarian) 0.225 µM | GI50 (OVCAR-8 ovarian) 0.421 µM | GI50 (UACC-62 melanoma) 0.0425 µM | GI50 (HCC-2998 colon) 324 nM | GI50 (786-0 renal) 0.424 µM | GI50 (RXF 393 renal) 0.0507 µM | GI50 (RPMI-8226 leukemia) 0.311 µM | GI50 (SW-620 colon) 0.0935 µM | GI50 (A498 renal) 0.0409 µM | GI50 (SF-539 CNS) 0.101 µM | GI50 (PC-3 prostate) 0.22 µM | GI50 (HCT-116 colon) 0.0774 µM
